Laboratory results: patent US6589970B2, “6-(aryl-amido or aryl-amidomethyl)-naphthalen-2-yloxy-acidic derivatives as inhibitors of plasminogen activator inhibitor type-1 (PAI-1)” (Wyeth, priority 2001, dated 2003)
Structures can show the parent of a compound that is named as a salt.

Experiments:
[1] = biological target: T1, recombinant human plasminogen activator inhibitor-1 (PAI-1) (Homo sapiens, UniProt P05121); test: Primary Screen for the PAI-1 Inhibition; format: biochemical; conditions: for inhibition at 25 µM: 25 μM test compound, read-out: % Inhib. 25 μM; for inhibition at 100 µM: 100 μM test compound, read-out: % Inhib. 100 μM
T1 construct: purchased Molecular Innovations, Royal Oak, Mich
T1 sequence (P05121 24-402): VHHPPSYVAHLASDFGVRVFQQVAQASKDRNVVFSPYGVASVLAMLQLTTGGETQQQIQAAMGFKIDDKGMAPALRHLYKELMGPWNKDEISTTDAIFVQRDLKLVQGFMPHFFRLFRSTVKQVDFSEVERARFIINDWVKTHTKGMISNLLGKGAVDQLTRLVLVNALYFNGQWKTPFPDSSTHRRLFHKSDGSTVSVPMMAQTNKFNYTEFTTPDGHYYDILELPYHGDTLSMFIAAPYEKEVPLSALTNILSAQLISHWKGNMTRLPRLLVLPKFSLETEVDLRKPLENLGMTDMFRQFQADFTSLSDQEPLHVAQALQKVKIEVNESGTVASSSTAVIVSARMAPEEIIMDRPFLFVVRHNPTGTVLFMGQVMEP
Procedure, shortened: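 Compound (1-100 μM final, ≤0.2% DMSO) was preincubated for 1 h at room temperature with 140 nM recombinant human PAI-1 at pH 6.6. tPA was then added at 70 nM for 30 min. Residual tPA activity was measured with Spectrozyme-tPA (A405 at 0 and 60 min) and taken as relative PAI-1 inhibition.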

[2] = biological target: T1, recombinant human plasminogen activator inhibitor-1 (PAI-1); test: Modification of the Primary Screen for the PAI-1 Inhibition (IC50); format: biochemical
Experimental: Test compounds are dissolved in DMSO at a final concentration of 10 mM, then diluted 100× in physiologic buffer. The inhibitory assay is initiated by the addition of the test compound (1-100 μM final concentration, maximum DMSO concentration of 0.2%) in a pH 6.6 buffer containing 140 nM recombinant human plasminogen activator inhibitor-1 (PAI-1; Molecular Innovations, Royal Oak, Mich.). Following a 1 hour incubation at room temperature, 70 nM of recombinant human tissue plasminogen activator (tPA) is added, and the combination of the test compound, PAI-1 and tPA is incubated for an additional 30 minutes. Following the second incubation, Spectrozyme-tPA (American Diagnostica, Greenwich, Conn.), a chromogenic substrate for tPA, is added and absorbance read at 405 nm at 0 and 60 minutes. Relative PAI-1 inhibition is equal to the residual tPA activity in the presence of the test compound and PAI-1. Control treatments include the complete inhibition of tPA by PAI-1 at the molar ratio employed (2:1), and the absence of any effect of the test compound on tPA alone.

Row | inhibition at 25 µM [1] [%] | inhibition at 100 µM [1] [%] | IC50 [2] [µM] | melting point [°C] | SMILES
1 | 18 | 80 | 11.8 | – | CCCc1c(C(=O)NCc2ccc3c(Br)c(OC(Cc4ccccc4)C(=O)O)ccc3c2)cnn1-c1ccccc1 (stereo not drawn) [Example 54, 2-(1-Bromo-6-{[(1-phenyl-5-propyl-1H-pyrazole-4-carbonyl)-amino]-methyl}-naphthalen-2-yloxy)-3-phenyl-propionic acid]
2 | 7 | 53 | 25.2 | – | Cc1oc(-c2ccc(Cl)cc2)cc1C(=O)NCc1ccc2cc(OCC(=O)O)ccc2c1 [Example 10, [6-({[5-(4-Chloro-phenyl)-2-methyl-furan-3-carbonyl]-amino}-methyl)-naphthalen-2-yloxy]-acetic acid]
3 | 24 | 98 | 5.5 | – | O=C(NCc1ccc2c(Br)c(OC(Cc3ccccc3)C(=O)O)ccc2c1)c1cccc(Oc2ccccc2)c1 (stereo not drawn) [Example 57, 2-{1-Bromo-6-[(3-phenoxy-benzoylamino)-methyl]-naphthalen-2-yloxy}-3-phenyl-propionic acid]
4 | 13 | 71 | 22.9 | – | CCCCc1oc2ccccc2c1C(=O)NCc1ccc2cc(OCc3nnn[nH]3)ccc2c1 [Example 8, 2-Butyl-benzofuran-3-carboxylic acid [6-(1H-tetrazol-5-ylmethoxy)-naphthalen-2-ylmethyl]-amide sodium salt]
5 | 20 | 98 | 4.3 | 208 to 211 | CCCCc1oc2ccccc2c1C(=O)NCc1ccc2c(-c3ccc(Cl)cc3)c(OCc3nnn[nH]3)ccc2c1 [Example 26, 2-Butyl-benzofuran-3-carboxylic acid [5-(4-chloro-phenyl)-6-(1-tetrazol-5-ylmethoxy)-naphthalen-2-ylmethyl]-amide]
6 | 22 | 100 | 20.2 | 180 to 183 | CCCCc1oc2ccccc2c1C(=O)NCc1ccc2c(-c3ccccc3)c(OCC(=O)O)ccc2c1 [Example 28, (6-{[(2-Butyl-benzofuran-3-carbonyl)-amino]-methyl}-1-phenyl-naphthanen-2-yloxy)-acetic acid]
7 | 43 | 67 | 18.3 | – | CCCCc1oc2ccccc2c1C(=O)Nc1ccc2c(Br)c(OCC(=O)O)ccc2c1 [Example 6, {1-Bromo-6-[(2-butyl-benzofuran-3-carbonyl)-amino]-naphthalen-2-yloxy}-acetic acid sodium salt]
8 | 12 | 78 | 36.5 | – | O=C(O)COc1ccc2cc(CNC(=O)c3cc(-c4ccccc4Cl)oc3C(F)(F)F)ccc2c1 [Example 81, [6-({[5-(2-Chloro-phenyl)-2-trifluoromethyl-furan-3-carbonyl]-amino}-methyl)-naphthalen-2-yloxy]-acetic acid]
9 | 84 | 100 | 1.9 | 160 to 163 | CC(C)(C)c1cc(C(=O)NCc2ccc3c(Br)c(OC(Cc4ccccc4)C(=O)O)ccc3c2)cc(C(C)(C)C)c1 (stereo not drawn) [Example 56, 2-{1-Bromo-6-[(3,5-di-tert-butyl-benzoylamino)-methyl]-naphthalen-2-yloxy}-3-phenyl-propionic acid]
10 | 23 | 100 | 8.5 | – | CCCCc1oc2ccccc2c1C(=O)NCc1ccc2c(-c3ccc(Cl)cc3)c(OC(Cc3ccccc3)C(=O)O)ccc2c1 (stereo not drawn) [Example 29, 2-[6-{[(2-Butyl-benzofuran-3-carbonyl)-amino]-methyl}-1-(4-chloro-phenyl)-naphthalen-2-yloxy]-3-phenyl-propionic acid]
11 | 3 | 94 | 4.6 | – | CCCCc1oc2ccccc2c1C(=O)NCc1ccc2c(-c3ccc(OC)cc3)c(OCc3nnn[nH]3)ccc2c1 [Example 25, 2-Butyl-benzofuran-3-carboxylic [5-(4-methoxy phenyl)-6-(1H-tetrazol-5-ylmethoxy)-naphthalen-2-ylmethyl]-amide, sodium salt]
